Tested on: Puccinia recondita
Test: Control of brown rust on wheat caused by Puccinia recondita (greenhouse, comparative)
Format: in vivo
Conditions: 500 ppm spray to run-off one day before inoculation; % diseased leaf area, visually assessed; untreated control 90
Experimental: The spray solutions were prepared in several steps:
The stock solution were prepared: a mixture of acetone and/or dimethylsulfoxide and the wetting agent/emulsifier Wettol, which is based on ethoxylated alkylphenoles, in a relation (volume) solvent-emulsifier of 99 to 1 was added to 25 mg of the compound to give a total of 5 ml. Water was then added to total volume of 100 ml.
This stock solution was diluted with the described solvent-emulsifier-water mixture to the given concentration.
The first two developed leaves of pot-grown wheat seedling were sprayed to run-off with an aqueous suspension, containing 500 ppm of active ingredient as described below. The next day the plants were inoculated with spores of Puccinia recondita. To ensure the success the artificial inoculation, the plants were transferred to a humid chamber without light and a relative humidity of 95 to 99% and 20 to 24° C. for 24 h. Then the trial plants were cultivated for 6 days in a greenhouse chamber at 20-24° C. and a relative humidity between 65 and 70%. The extent of fungal attack on the leaves was visually assessed as % diseased leaf area.

SMILES	Disease level (%)
Cn1c(=O)c2sc3c(=O)n(C)c(=O)c3sc2c1=O	80
COn1c(=O)c2sc3c(=O)n(OC)c(=O)c3sc2c1=O [I-2, 2.6-Dimethoxy-1H.5H-[1.4]dithiino[2,3-c:5.6-c′]dipyrrol-1.3.5.7(2H.6H)tetrone]	45
